Results taken from patent US10718028B2, “Fluorescent probes for abasic site detection” (CASE WESTERN RESERVE UIVERSITY, priority 2015, dated 2020).
Entries after “also recorded” stand apart in the source; their conditions may differ.

Legend:
APE = biological target: T1, APE (Homo sapiens, UniProt P27695); assay: SSB activity assay APE inhibition; type: biochemical
T1 construct: purchased New England BioLabs
Protocol: FIG. 7 illustrates the evaluation of APE inhibition by Cy7MX. […] APE is inhibited about 50% after 3 h incubation. The baseline reduction in cutting is due to competition of APE and Cy7MX for the AP-DNA substrate.
Meanwhile, five samples of each DNA reaction were prepared.
We determined if Cy7MX could inhibit the activity of the enzymes and thereby complicate the results on the assay. While the order of reagent addition in the assay may be structured to avoid enzyme inhibition, Cy7MX is envisioned as an imaging agent in living cells where the enzymes are constantly present. To test the possible inhibition of Cy7MX towards APE, the probe and enzyme were incubated together for a variable period of time then incubated for a fixed period of time with AP DNA (U:A DNA pretreated with UDG). If the two species were only competing for substrate, then the extent of cutting observed would be independent of the APE+Cy7MX incubation time. Conversely, if Cy7MX inhibits the action of APE, then the extent of cutting would vary as a function of APE+Cy7MX incubation time. In either case, some baseline reduction in cutting was expected as Cy7MX and APE competed for substrate. […] However, this effect was only observed after 60 minutes. Thus, the one hour incubation of APE in the cutting assay is not expected to be negatively impacted by the presence of Cy7MX.

AP DNA = assay: SSB activity assay, dose-response of AP site binding probes; type: biochemical; conditions: 5 pmol AP DNA, FIG. 1
Protocol: FIG. 1 illustrates SSB activity assay is used to compare the dose-response of AP site binding probes in 5 pmol of AP DNA. Mean and standard deviation of triplicate samples are shown for each concentration.
The single strand break (SSB) assay was proposed as a quick, facile tool to screen AP site binding probes. Therefore, the assay was performed on novel AP site binding probes described above and the commercially available AP site binding probe, F422. […] The reduced response of F422 and DansylMX may be due in part to the compounds being fairly electron rich near the aminooxy binding moiety. This could lead to a Coulombic repulsion with the DNA phosphate backbone.
SSB activity assays were performed on a 40-mer duplex DNA synthesized by IDT with the sequence:
SSB Activity Assay Control Reactions

T1 sequence (P27695 whole entry): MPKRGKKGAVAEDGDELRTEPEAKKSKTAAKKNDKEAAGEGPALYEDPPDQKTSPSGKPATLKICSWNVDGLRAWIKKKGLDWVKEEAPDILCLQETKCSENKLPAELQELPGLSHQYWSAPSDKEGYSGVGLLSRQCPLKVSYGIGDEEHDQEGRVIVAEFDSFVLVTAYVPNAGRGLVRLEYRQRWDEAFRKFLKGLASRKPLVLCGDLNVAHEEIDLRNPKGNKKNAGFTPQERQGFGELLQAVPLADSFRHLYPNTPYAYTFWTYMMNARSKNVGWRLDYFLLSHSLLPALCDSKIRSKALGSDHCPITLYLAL

For `CCCN1/C(=C/C=C2\CCCC(/C=C/C3=[N+](CCC)c4ccccc4C3(C)C)=C2Oc2ccc(CC(=O)NCCCON)cc2)C(C)(C)c2ccccc21` [Cy7MX, 2-((E)-2-((E)-2-(4-(2-((3-(aminooxy)propyl)amino)-2-oxoethyl)phenoxy)-3-((E)-2-(3,3-dimethyl-1-propylindolin-2-ylidene)ethylidene)cyclohex-1-en-1-yl)vinyl)-3,3-dimethyl-1-propyl-3H-indol-1-ium 2,2,2-trifluoroacetate], the APE inhibition (APE; 60 min APE incubation) was “no detectable inhibition”, the APE inhibition (APE; APE and Cy7MX incubated together before addition of AP-DNA, variable time, 2,2,2-trifluoroacetate) was “did have inhibitory effects on APE; also recorded: mild inhibition” and the APE inhibition (APE; after 3 h incubation of APE with Cy7MX) was “about 50%”. For the same compound, the APE inhibition (APE; tetrahydrofuran (THF) base in place of the AP site) was “moderate inhibition of APE” and the “dose-response and overall efficacy in SSB assay” value (AP DNA) was “acceptable dose-response and overall efficacy”.
